Earlier results in US8906890B2, “Very low-dosed solid oral dosage forms for HRT” (Bayer Intellectual Property GmbH, priority 2010, dated 2014).

Settings: 2 mg E2 orally

For C[C@]12CC[C@@H]3c4ccc(O)cc4CC[C@H]3[C@@H]1CC[C@@H]2O [E2, estradiol], the estrogen-related adverse events is given as “increased estrogen-related adverse events”.
